Experimental data as given in ChEMBL document CHEMBL1255171.
Active and inactive are the calls of the source. The rule behind the calls is not given here. Where a SMILES comes first, the peptide text is derived from it. Bridges are numbered along the chain shown (N, C = ends).

Key:
[1] = molecular target: Secretin receptor (Homo sapiens) (UniProt P47872); experiment: Agonist activity at secretin receptor expressed in CHO cells assessed as increase of cAMP level at 1 uM; type: functional, cell-based
Secretin receptor (Homo sapiens), sequence (P47872 whole entry): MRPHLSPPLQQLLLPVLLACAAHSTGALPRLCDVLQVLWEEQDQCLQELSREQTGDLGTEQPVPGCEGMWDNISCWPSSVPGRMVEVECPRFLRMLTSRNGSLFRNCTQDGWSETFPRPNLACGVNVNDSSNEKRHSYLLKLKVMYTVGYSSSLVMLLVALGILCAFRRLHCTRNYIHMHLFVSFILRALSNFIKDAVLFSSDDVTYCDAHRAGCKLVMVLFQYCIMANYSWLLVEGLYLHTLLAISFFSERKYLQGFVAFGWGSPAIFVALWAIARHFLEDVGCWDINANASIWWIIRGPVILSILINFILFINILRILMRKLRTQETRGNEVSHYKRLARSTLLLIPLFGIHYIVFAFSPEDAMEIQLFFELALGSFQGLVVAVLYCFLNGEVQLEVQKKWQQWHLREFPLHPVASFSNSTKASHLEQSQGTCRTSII

[2] = molecular target: Secretin receptor (Homo sapiens) (UniProt P47872); experiment: Displacement of [125I]-secretin-27 from secretin receptor expressed in CHO cells at 1 uM by gamma-spectrometer analysis; type: cell-based

Row | Activity [1] | Activity [2] | SMILES
1 | Active | Active | CC(C)C[C@H](NC(=O)CNC(=O)[C@H](CCC(N)=O)NC(=O)[C@H](CC(C)C)NC(=O)[C@H](CC(C)C)NC(=O)[C@H](CCCNC(=N)N)NC(=O)[C@H](CCC(N)=O)NC(=O)[C@H](CC(C)C)NC(=O)[C@H](CCCNC(=N)N)NC(=O)[C@H](C)NC(=O)[C@H](CO)NC(=O)[C@H](CC(=O)O)NC(=O)[C@H](CCC(N)=O)NC(=O)[C@H](CC(C)C)NC(=O)[C@H](CCCNC(=N)N)NC(=O)[C@H](CO)NC(=O)[C@H](Cc1ccc(O)cc1)NC(=O)[C@H](CCC(=O)O)NC(=O)[C@H](CO)NC(=O)[C@@H](NC(=O)[C@H](Cc1ccccc1)NC(=O)[C@@H]1CSSC[C@H](NC(=O)[C@H](CO)NC(=O)[C@@H](N)Cc2cnc[nH]2)C(=O)NCC(=O)N1)[C@@H](C)O)C(=O)N[C@H](C(N)=O)C(C)C (H-HSCGCFTSEYSRLQDSARLQRLLQGLV-NH2; disulfide 3-5)
2 | Active | Active | CC(C)C[C@H](NC(=O)CNC(=O)[C@H](CCC(N)=O)NC(=O)[C@H](CC(C)C)NC(=O)[C@H](CC(C)C)NC(=O)[C@H](CCCNC(=N)N)NC(=O)[C@H](CCC(N)=O)NC(=O)[C@H](CC(C)C)NC(=O)[C@H](CCCNC(=N)N)NC(=O)[C@H](C)NC(=O)[C@H](CO)NC(=O)[C@H](CC(=O)O)NC(=O)[C@H](CCC(N)=O)NC(=O)[C@H](CC(C)C)NC(=O)[C@H](CCCNC(=N)N)NC(=O)[C@H](CO)NC(=O)[C@H](Cc1ccc(O)cc1)NC(=O)[C@H](CCC(=O)O)NC(=O)[C@H](CO)NC(=O)[C@@H]1CSSC[C@H](NC(=O)[C@H](CC(=O)O)NC(=O)[C@H](CO)NC(=O)[C@@H](N)Cc2cnc[nH]2)C(=O)N[C@@H]([C@@H](C)O)C(=O)N[C@@H](Cc2ccccc2)C(=O)N1)C(=O)N[C@H](C(N)=O)C(C)C (H-HSDCTFCSEYSRLQDSARLQRLLQGLV-NH2; disulfide 4-7)
3 | Active |  | CC(C)C[C@H](NC(=O)CNC(=O)[C@H](CCC(N)=O)NC(=O)[C@H](CC(C)C)NC(=O)[C@H](CC(C)C)NC(=O)[C@H](CCCNC(=N)N)NC(=O)[C@H](CCC(N)=O)NC(=O)[C@H](CC(C)C)NC(=O)[C@H](CCCNC(=N)N)NC(=O)[C@H](C)NC(=O)[C@H](CO)NC(=O)[C@H](CC(=O)O)NC(=O)[C@H](CCC(N)=O)NC(=O)[C@H](CC(C)C)NC(=O)[C@H](CCCNC(=N)N)NC(=O)[C@H](CO)NC(=O)[C@H](Cc1ccc(O)cc1)NC(=O)[C@@H]1CSSC[C@H](NC(=O)[C@H](Cc2ccccc2)NC(=O)[C@@H](NC(=O)CNC(=O)[C@H](CC(=O)O)NC(=O)[C@H](CO)NC(=O)[C@@H](N)Cc2cnc[nH]2)[C@@H](C)O)C(=O)N[C@@H](CO)C(=O)N1)C(=O)N[C@H](C(N)=O)C(C)C (H-HSDGTFCSCYSRLQDSARLQRLLQGLV-NH2; disulfide 7-9)
